Laboratory results: the supplement of paper PMC4977894
Structures can show the parent of a compound that is named as a salt. ± gives the standard deviation of the averaged measurements.

Experiments:
[1] = system: Homo sapiens (human subject panel, olfactory perception); test: perceived odor pleasantness rating (rating 0-100); higher = more pleasant
Protocol: (§1)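 Human olfactory psychophysics. 55 healthy subjects (after excluding 6 low performers) sniffed 1 mL of each odorant diluted in paraffin oil (vials, two dilutions per molecule, 20 molecules presented twice). Each subject rated intensity, pleasantness and familiarity on a 0-100 slider, starting at 50 and required to move. Ratings were given only when the subject reported detecting a smell; per-subject ratings are averaged over subjects.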

[2] = system: Homo sapiens (human subject panel, olfactory perception); test: perceived odor intensity rating (rating 0-100); higher = stronger perceived smell
Protocol: as §1

[3] = system: Homo sapiens (human subject panel, olfactory perception); test: perceived odor familiarity rating (rating 0-100); higher = more familiar
Protocol: as §1

[4] = odor dilution in paraffin oil: 1/1,000
[5] = odor dilution in paraffin oil: 1/100,000
[6] = odor dilution in paraffin oil: 1/10,000,000
[7] = odor dilution in paraffin oil: 1/10

Structure (SMILES)	perceived odor pleasantness rating [1, 4]	perceived odor pleasantness rating [1, 5]	perceived odor intensity rating [2, 4]	perceived odor intensity rating [2, 5]	perceived odor familiarity rating [3, 4]	perceived odor familiarity rating [3, 5]	perceived odor pleasantness rating [1, 6]	perceived odor intensity rating [2, 6]	perceived odor familiarity rating [3, 6]	perceived odor pleasantness rating [1, 7]	perceived odor intensity rating [2, 7]	perceived odor familiarity rating [3, 7]
CCc1nccnc1C(C)=O [2-Acetyl-3-ethylpyrazine]	25.7 ± 23	41.2 ± 23	79.4 ± 20	46.3 ± 30	57.2 ± 29	52.4 ± 30	–	–	–	–	–	–
CC(=O)c1ccc(C)o1 [2-Acetyl-5-methylfuran]	36.5 ± 25	47.4 ± 27	71.5 ± 22	25.2 ± 31	38.2 ± 28	38.2 ± 29	–	–	–	–	–	–
CC(=O)c1nccs1 [2-Acetylthiazole]	46.3 ± 31	47.7 ± 30	80 ± 20	76.3 ± 17	69.3 ± 28	58.3 ± 31	–	–	–	–	–	–
CC(=O)c1cccs1 [2-Acetylthiophene]	–	46 ± 23	–	43.9 ± 29	–	42.4 ± 30	52.4 ± 25	25.3 ± 28	44.9 ± 30	–	–	–
CC(=O)c1ccccc1N [2-Aminoacetophenone]	57.5 ± 27	58.4 ± 26	71.9 ± 24	66.7 ± 27	54.8 ± 30	52.7 ± 30	–	–	–	–	–	–
CCOc1nccs1 [2-Ethoxythiazole]	24.3 ± 23	37.6 ± 25	79.9 ± 19	52.7 ± 30	45.2 ± 30	42.5 ± 28	–	–	–	–	–	–
CCc1nccnc1C [2-Ethyl-3-methylpyrazine]	31.2 ± 26	43.9 ± 29	82.1 ± 17	70.5 ± 21	55.7 ± 32	60 ± 31	–	–	–	–	–	–
CCc1nc(C)cs1 [2-Ethyl-4-methylthiazole]	16.6 ± 19	33.6 ± 24	87 ± 15	73.1 ± 21	43.6 ± 30	45.6 ± 29	–	–	–	–	–	–
CCC1(O)C2(C)CCC(C2)C1(C)C (configuration not stated) [2-Ethylfenchol]	37.2 ± 27	45.5 ± 25	73.6 ± 27	39.1 ± 34	58.9 ± 33	47.7 ± 35	–	–	–	–	–	–
CCc1ccco1 [2-Ethylfuran]	34.4 ± 24	38.3 ± 30	52.4 ± 31	42.2 ± 35	45.4 ± 31	31.4 ± 29	–	–	–	–	–	–
CCCCC(CC)C(=O)O (configuration not stated) [2-Ethylhexanoic acid]	38.1 ± 22	–	47.8 ± 31	–	47.7 ± 28	–	–	–	–	28.4 ± 21	73.7 ± 23	46.6 ± 29
O=CSCc1ccco1 [2-Furanmethanethiol formate]	–	21.5 ± 23	–	87.3 ± 14	–	54.5 ± 36	24.3 ± 28	86.9 ± 14	58.5 ± 35	–	–	–
CC(=O)c1ccccc1O [2-Hydroxyacetophenone]	29.5 ± 25	39.2 ± 24	80.7 ± 17	48.5 ± 30	49.6 ± 33	43.8 ± 29	–	–	–	–	–	–
CC(C)Cc1nccs1 [2-Isobutylthiazole]	–	41.4 ± 26	–	61.3 ± 26	–	46.3 ± 29	46.4 ± 23	31.2 ± 31	32.4 ± 31	–	–	–
CC(C)c1ccccc1O [2-Isopropylphenol]	28.8 ± 22	44.4 ± 20	84.3 ± 14	38.8 ± 30	49 ± 34	36 ± 29	–	–	–	–	–	–
CC(O)C(C)S (configuration not stated) [2-Mercapto-3-butanol]	–	40 ± 26	–	45.9 ± 32	–	41.6 ± 32	50.2 ± 23	30.2 ± 30	37 ± 26	–	–	–
COc1cncc(C(C)C)n1 [2-Methoxy-3(5 or 6)-isopropylpyrazine]	27.3 ± 26	33.3 ± 22	80.8 ± 23	58 ± 30	50 ± 32	45.3 ± 28	–	–	–	–	–	–
